Reference: patent US20260297542A1, “HERBICIDE RESISTANT PLANTS” (SYNGENTA CROP PROTECTION AG, priority 2023, published 2026)
Changes are numbered by the printed parent chain.

How the values were obtained:
Test in all cases: E. coli hemG growth inhibition by herbicide, AtPPO1 variant
Format in all cases: cell-based
Settings in all cases: read-out: percentage growth inhibition
AtPPO1 L424V = target: T1, AtPPO1 L424V (Arabidopsis thaliana, UniProt P55826, L424V)
T1 construct: expressed in transfected cells; host or cells: E. coli BL21(DE3) hemG (pET24a, T7 promoter)
T1 sequence (P55826 35-537 L424V): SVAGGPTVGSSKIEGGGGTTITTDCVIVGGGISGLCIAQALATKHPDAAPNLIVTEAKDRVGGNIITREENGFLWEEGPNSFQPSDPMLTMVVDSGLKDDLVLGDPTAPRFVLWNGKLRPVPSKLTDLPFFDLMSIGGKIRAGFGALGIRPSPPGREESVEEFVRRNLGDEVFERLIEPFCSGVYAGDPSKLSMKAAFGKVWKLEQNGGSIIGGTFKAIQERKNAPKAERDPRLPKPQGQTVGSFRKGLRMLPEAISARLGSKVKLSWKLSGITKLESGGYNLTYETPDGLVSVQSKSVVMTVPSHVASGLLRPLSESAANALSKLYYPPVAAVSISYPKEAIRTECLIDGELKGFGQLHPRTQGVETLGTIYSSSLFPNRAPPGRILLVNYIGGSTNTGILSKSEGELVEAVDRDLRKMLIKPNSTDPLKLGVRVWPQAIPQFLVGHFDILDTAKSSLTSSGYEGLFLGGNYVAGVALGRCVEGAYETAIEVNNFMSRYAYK
Outline: (§1)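 Read-out is OD600 at 24 h post inoculation, converted to percent growth inhibition relative to DMSO. The hemG-deleted BL21(DE3) host relied on the plasmid-borne AtPPO1 variant, induced with 0.1 mM IPTG, with 6.25 ppm herbicide 0 or E or 0.78 ppm herbicide B present at 37° C.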

AtPPO1 K281E = target: T2, AtPPO1 K281E (Arabidopsis thaliana, UniProt P55826, K281E)
T2 construct: expressed in transfected cells; host or cells: E. coli BL21(DE3) hemG (hemG replaced by CmR), pET24a plasmid
T2 sequence (P55826 35-537 K281E): T1 sequence (P55826 35-537 L424V) with K247E, V390L
Outline: as §1

AtPPO1 Y426L = target: T3, AtPPO1 Y426L (Arabidopsis thaliana, UniProt P55826, Y426L)
T3 construct: expressed in transfected cells; host or cells: E. coli BL21(DE3) hemG (pET24a, T7 promoter)
T3 sequence (P55826 35-537 Y426L): T1 sequence (P55826 35-537 L424V) with V390L, Y392L
Outline: as §1

AtPPO1 Y426M = target: T4, AtPPO1 Y426M (Arabidopsis thaliana, UniProt P55826, Y426M)
T4 construct: expressed in transfected cells; host or cells: E. coli BL21(DE3) hemG (pET24a, T7 promoter)
T4 sequence (P55826 35-537 Y426M): T1 sequence (P55826 35-537 L424V) with V390L, Y392M
Outline: as §1

Structure (SMILES) | inhibition at 6.25 ppm (AtPPO1 L424V) | inhibition at 6.25 ppm (AtPPO1 K281E) | inhibition at 6.25 ppm (AtPPO1 Y426L) | inhibition at 6.25 ppm (AtPPO1 Y426M) | inhibition at 0.78 ppm (AtPPO1 L424V) | inhibition at 0.78 ppm (AtPPO1 K281E) | inhibition at 0.78 ppm (AtPPO1 Y426L) | inhibition at 0.78 ppm (AtPPO1 Y426M)
CCOC(=O)[C@]1(C)CC(c2cc(-n3c(=O)n(C)c(=S)n(C)c3=O)c(F)cc2Cl)=NO1 [Herbicide D, ethyl (5S)-3-[2-chloro-5-(3,5-dimethyl-2,6-dioxo-4-thioxo-1,3,5-triazinan-1-yl)-4-fluoro-phenyl]-5-methyl-4H-isoxazole-5-carboxylate] | 33% | 33% | 25% | 25% | – | – | – | –
C#CCN1C(=O)C(F)(F)Oc2cc(F)c(-n3c(=O)n(C)c(=S)n(C)c3=O)cc21 [Herbicide B, trifludimoxazin] | – | – | – | – | 19% | 37% | 15% | 7%
CC(C)N(C)S(=O)(=O)NC(=O)c1cc(-n2c(=O)cc(C(F)(F)F)n(C)c2=O)c(F)cc1Cl [Herbicide E, saflufenacil] | 66% | 61% | 12% | 17% | – | – | – | –
